Experimental data from patent US20240199640A1, “NEGATIVE ALLOSTERIC MODULATORS OF METABOTROPIC GLUTAMATE RECEPTOR 2” (priority 2021, published 2024).
Values joined by “and” are separate entries in the source; they are usually repeats but may differ in a detail not shown here. Equal entries are not always repeated.

What follows are compounds tested against T1, rat mGlu2 (Rattus norvegicus, UniProt P31421) (assay: mGlu GIRK cell-based thallium flux assay, rat mGlu2). Conditions: rat mGlu2 GIRK IC50 (nM), HEK-293 cells co-expressing rat mGlu2 and GIRK; EC80 glutamate; Tl flux.
T1 construct: expressed in transfected cells; host or cells: HEK-293
T1 sequence (P31421 19-872): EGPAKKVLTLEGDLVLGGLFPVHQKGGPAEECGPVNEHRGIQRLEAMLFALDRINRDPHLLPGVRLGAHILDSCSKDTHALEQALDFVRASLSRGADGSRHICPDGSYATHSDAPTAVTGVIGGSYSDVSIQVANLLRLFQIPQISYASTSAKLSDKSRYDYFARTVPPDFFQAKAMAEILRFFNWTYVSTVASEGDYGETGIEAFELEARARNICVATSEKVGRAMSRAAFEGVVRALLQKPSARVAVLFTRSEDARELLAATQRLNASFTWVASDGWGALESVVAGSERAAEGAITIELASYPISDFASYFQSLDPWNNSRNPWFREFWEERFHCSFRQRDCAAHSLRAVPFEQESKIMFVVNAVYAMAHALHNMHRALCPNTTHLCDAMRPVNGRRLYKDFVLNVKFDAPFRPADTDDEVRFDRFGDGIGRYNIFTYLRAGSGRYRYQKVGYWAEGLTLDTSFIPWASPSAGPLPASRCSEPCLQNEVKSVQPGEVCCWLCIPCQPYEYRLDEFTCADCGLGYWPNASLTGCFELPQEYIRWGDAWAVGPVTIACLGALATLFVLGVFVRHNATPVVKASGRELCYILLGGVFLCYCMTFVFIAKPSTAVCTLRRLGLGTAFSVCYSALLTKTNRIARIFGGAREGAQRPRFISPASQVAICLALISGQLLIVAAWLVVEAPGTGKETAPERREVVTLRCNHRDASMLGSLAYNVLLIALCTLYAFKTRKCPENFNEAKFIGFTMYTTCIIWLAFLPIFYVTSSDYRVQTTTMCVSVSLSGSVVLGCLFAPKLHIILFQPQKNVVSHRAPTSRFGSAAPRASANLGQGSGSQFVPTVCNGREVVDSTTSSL
Description: The day before the assay, GIRK cells co-expressing human mGlu3, human or rat mGlu2, as described above, were plated in black-walled, clear-bottomed, amine-coated 384-well plates at a density of 15,000 cells/20 μL/well in the assay medium (glutamine-depleted basal DMEM supplemented with 10% dialyzed FBS, 20 mM HEPES, 1 mM sodium pyruvate). Cells were incubated at 37° C. in the presence of 5% CO2. […] Cells were washed with assay buffer using a microplate washer to remove the medium, resulting in 20 μL of buffer remaining in each well. Immediately, 20 μL of 2× Thallos dye solution was added to cells, and incubated for one hour at 25° C. During the cell dye loading incubation period, a 10-point concentration serial dilution of compound was created from a 10 mM DMSO compound stock by performing a 1:3 serial dilution in DMSO using the Bravo liquid handler. The 2× compound plate was generated by transferring 0.24 μL of the diluted compound in each well to a daughter plate using an Echo acoustic liquid handler.
After dye-loading, cell plates were washed with assay buffer to remove excess extracellular dye using a microplate washer, resulting in 20 μL of buffer remaining in each well. After a ten-minute equilibration period, cell, compound and agonist plates were loaded into a Hamamatsu μCell kinetic imaging plate reader equipped with liquid handler to monitor fluorescence changes at 480 nm excitation and 540 nm emission settings. Briefly, after collection of baseline fluorescence, 20 μL of compound was added and incubated for two minutes and twenty seconds. This is immediately followed by adding 10 μL of glutamate-thallium buffer to the wells containing compound. The fluorescent signal was monitored an additional 2.5 minutes after the glutamate addition. Multiple reference wells containing no compound received either no glutamate (for a baseline reference), […] glutamate, or ECmax glutamate (for normalization to maximum response). Fluorescence was measured throughout the experiment at a frequency of 1 measurement per every 2 seconds before the glutamate addition and a frequency of 1 measurement per every 1 second after the glutamate addition. Each compound concentration series occurred one time in each plate, and replicates from two or three plates were used in each experimental run. Thallium solutions were handled and disposed of according to guidelines from the Vanderbilt University Chemical Safety department.
Data were normalized using a static ratio function (F/F0) by dividing every fluorescent measurement by the initial fluorescent value for the corresponding well. The increase in signal resulting from the glutamate/thallium addition of the second add was measured by determining the slope from 3 seconds to 13 seconds after the addition. The average of all baseline slopes (no compound, no glutamate) was determined and this value was subtracted from all other slope values. The average of all ECmax slopes was determined and this value was used to normalize the baseline-corrected slopes to a percent max value (% Emax). The % Emax values for each compound series were plotted versus the log of the concentration and fit to a 4-parameter logistical equation with no fixed parameters.
Potency is reported as the IC50 resulting from the curve fit.
For [2H]C1([2H])NC(=O)c2cc(-c3ccc(F)cc3)c(OC([2H])([2H])c3cnn(C)c3)cc21 [Compound 34, 6-(4-fluorophenyl)-5-((1-methyl-1H-pyrazol-4-yl)methoxy-d2)isoindolin-1-one-3,3-d2], the IC50 was 836 nM.
Compound CC(Oc1cc2c(cc1-c1ccc(-c3cccs3)cc1)C(=O)NC2)c1ccncc1 (stereo not drawn) [Compound 36, 5-(1-(pyridin-4-yl)ethoxy)-6-(4-(thiophen-2-yl)phenyl)isoindolin-1-one] has an IC50 greater than 30000 nM.
Work on Cc1nocc1S(=O)(=O)N1CC(Oc2cc3c(cc2-c2ccc(F)cc2)C(=O)NC3)C1 [Compound 74, 6-(4-fluorophenyl)-5-((1-((3-methylisoxazol-4-yl)sulfonyl)azetidin-3-yl)oxy)isoindolin-1-one] yielded an IC50 greater than 10000 nM.
CC(Oc1cc2c(cc1-c1ccc(OC(F)(F)F)cc1)C(=O)NC2)c1ccncc1 (stereo not drawn) [Compound 39, 5-(1-(pyridin-4-yl)ethoxy)-6-(4-(trifluoromethoxy)phenyl)isoindolin-1-one] gave an IC50 greater than 10000 nM.
For Cc1nn(C)cc1-c1cc2c(cc1OCc1ccn(C)n1)CNC2=O [Compound 45, 6-(1,3-dimethyl-1H-pyrazol-4-yl)-5-((1-methyl-1H-pyrazol-3-yl)methoxy)isoindolin-1-one], the IC50 was 3820 nM.
In the case of Cn1ccc(-c2cc3c(cc2OCc2ccn(C)n2)CNC3=O)c1 [Compound 47, 5-((1-methyl-1H-pyrazol-3-yl)methoxy)-6-(1-methyl-1H-pyrrol-3-yl)isoindolin-1-one], the IC50 is reported as greater than 10000 nM.
For Cn1ccc(COc2cc3c(cc2-c2cc(F)nc(F)c2)C(=O)NC3)n1 [Compound 41, 6-(2,6-difluoropyridin-4-yl)-5-((1-methyl-1H-pyrazol-3-yl)methoxy)isoindolin-1-one], the IC50 was greater than 10000 nM.
With N#Cc1cccc(C(=O)N2CC(Oc3cc4c(cc3-c3ccc(F)cc3)C(=O)NC4)C2)c1 [Compound 70, 3-(3-((6-(4-fluorophenyl)-1-oxoisoindolin-5-yl)oxy)azetidine-1-carbonyl)benzonitrile] the IC50 was 4780 nM and > 30000 nM.
Work on Cc1cc(-c2cc3c(cc2OCc2ccn(C)n2)CNC3=O)n(C)n1 [Compound 48, 6-(1,3-dimethyl-1H-pyrazol-5-yl)-5-((1-methyl-1H-pyrazol-3-yl)methoxy)isoindolin-1-one] yielded an IC50 greater than 10000 nM.
Compound O=C1NCc2cc(OC3CN(S(=O)(=O)c4ccc5cnccc5c4)C3)c(-c3ccc(F)cc3)cc21 [Compound 75, 6-(4-fluorophenyl)-5-((1-(isoquinolin-6-ylsulfonyl)azetidin-3-yl)oxy)isoindolin-1-one] has an IC50 greater than 10000 nM.
Compound Cn1cc(CN2CC(Oc3cc4c(cc3-c3ccc(F)cc3)C(=O)NC4)C2)cn1 [Compound 78, 6-(4-fluorophenyl)-5-((1-((1-methyl-1H-pyrazol-4-yl)methyl)azetidin-3-yl)oxy)isoindolin-1-one] has an IC50 greater than 10000 nM.
For O=C1NCc2cc(OC3CN(Cc4cccnc4Cl)C3)c(-c3ccc(F)cc3)cc21 [Compound 82, 5-((1-((2-chloropyridin-3-yl)methyl)azetidin-3-yl)oxy)-6-(4-fluorophenyl)isoindolin-1-one], the IC50 was 2610 nM.
Cn1ccc(COc2cc3c(cc2-c2ccc4ncsc4c2)C(=O)NC3)n1 [Compound 52, 6-(benzo[d]thiazol-6-yl)-5-((1-methyl-1H-pyrazol-3-yl)methoxy)isoindolin-1-one] was tested, and the IC50 was 675 nM.
In the case of O=C1NCc2cc(OC3CN(C(=O)c4ccno4)C3)c(-c3ccc(F)cc3)cc21 [Compound 69, 6-(4-fluorophenyl)-5-((1-(isoxazole-5-carbonyl)azetidin-3-yl)oxy)isoindolin-1-one], the IC50 is reported as greater than 10000 nM.
With Cn1ccc(COc2cc3c(cc2-c2ccc(F)nc2)C(=O)NC3)n1 [Compound 44, 6-(6-fluoropyridin-3-yl)-5-((1-methyl-1H-pyrazol-3-yl)methoxy)isoindolin-1-one] the IC50 was 1840 nM.
For Cn1ccc(N2CC(Oc3cc4c(cc3-c3ccc(F)cc3)C(=O)NC4)C2)n1 [Compound 71, 6-(4-fluorophenyl)-5-((1-(1-methyl-1H-pyrazol-3-yl)azetidin-3-yl)oxy)isoindolin-1-one], the IC50 was 1960 nM.
With [2H]C([2H])(Oc1cc2c(cc1-c1cc(F)cc(C#N)c1)C(=O)NC2)c1ccc(C)nc1 [Compound 59, 3-fluoro-5-(6-((6-methylpyridin-3-yl)methoxy-d2)-3-oxoisoindolin-5-yl)benzonitrile] the IC50 was greater than 10000 nM.
CC(Oc1cc2c(cc1-c1ccc(OC(F)F)cc1F)C(=O)NC2)c1ccncc1 (stereo not drawn) [Compound 37, 6-(4-(difluoromethoxy)-2-fluorophenyl)-5-(1-(pyridin-4-yl)ethoxy)isoindolin-1-one] showed an IC50 of 781 nM.
In the case of Cn1ccc(COc2cc3c(cc2-c2ccc4c(c2)CCO4)C(=O)NC3)n1 [Compound 51, 6-(2,3-dihydrobenzofuran-5-yl)-5-((1-methyl-1H-pyrazol-3-yl)methoxy)isoindolin-1-one], the IC50 is reported as 965 nM.
For O=C1NCc2cc(OC3CN(C(=O)c4cccs4)C3)c(-c3ccc(F)cc3)cc21 [Compound 67, 6-(4-fluorophenyl)-5-((1-(thiophene-2-carbonyl)azetidin-3-yl)oxy)isoindolin-1-one], the IC50 was greater than 10000 nM.
Work on CC(Oc1cc2c(cc1-c1ccc(F)cc1)C(=O)NC2)c1ccncc1 (stereo not drawn) [Compound 27, 6-(4-fluorophenyl)-5-(1-(pyridin-4-yl)ethoxy)isoindolin-1-one] yielded an IC50 of 321 nM.
Work on Cn1ccc(COc2cc3c(cc2-c2cnn(C(F)F)c2)C(=O)NC3)n1 [Compound 50, 6-(1-(difluoromethyl)-1H-pyrazol-4-yl)-5-((1-methyl-1H-pyrazol-3-yl)methoxy)isoindolin-1-one] yielded an IC50 of 2360 nM.
Work on O=C1NCc2cc(OC3CN(Cc4ccc(C(F)(F)F)o4)C3)c(-c3ccc(F)cc3)cc21 [Compound 81, 6-(4-fluorophenyl)-5-((1-((5-(trifluoromethyl)furan-2-yl)methyl)azetidin-3-yl)oxy)isoindolin-1-one] yielded an IC50 of 1670 nM.
O=C1NCc2cc(OC3CN(C(=O)c4cccc(C(F)(F)F)c4)C3)c(-c3ccc(F)cc3)cc21 [Compound 66, 6-(4-fluorophenyl)-5-((1-(3-(trifluoromethyl)benzoyl)azetidin-3-yl)oxy)isoindolin-1-one] was tested, and the IC50 was 7540 nM and > 30000 nM.
In the case of Cn1ccc(COc2cc3c(cc2-c2ccc4c(c2)OCO4)C(=O)NC3)n1 [Compound 55, 6-(benzo[d][1,3]dioxol-5-yl)-5-((1-methyl-1H-pyrazol-3-yl)methoxy)isoindolin-1-one], the IC50 is reported as 1190 nM and 362 nM.
For [2H]C([2H])(Oc1cc2c(cc1-c1ccc(F)cc1)C(=O)NC2)c1cnn(C)c1 [Compound 30, 6-(4-fluorophenyl)-5-((1-methyl-1H-pyrazol-4-yl)methoxy-d2)isoindolin-1-one], the IC50 was 418 nM.
For Cn1ccc(OCc2cc3c(cc2-c2ccc(F)cc2)C(=O)NC3)n1 [Compound 64, 6-(4-fluorophenyl)-5-(((1-methyl-1H-pyrazol-3-yl)oxy)methyl)isoindolin-1-one], the IC50 was 2930 nM and 582 nM.
CC(Oc1cc2c(cc1-c1ccc(F)cc1F)C(=O)NC2)c1ccncc1 (stereo not drawn) [Compound 28, 6-(2,4-difluorophenyl)-5-(1-(pyridin-4-yl)ethoxy)isoindolin-1-one] gave an IC50 of 305 nM.
O=C1NCc2cc(Oc3ccncc3)c(-c3ccc(F)cc3)cc21 [Compound 31, 6-(4-fluorophenyl)-5-(pyridin-4-yloxy)isoindolin-1-one] was tested, and the IC50 was 1160 nM.
Cn1ccc(COc2cc3c(cc2-c2ccc(OC(F)(F)F)cc2)C(=O)NC3)n1 [Compound 43, 5-((1-methyl-1H-pyrazol-3-yl)methoxy)-6-(4-(trifluoromethoxy)phenyl)isoindolin-1-one] showed an IC50 of 2370 nM.
With Cn1ccc(COc2cc3c(cc2-c2ccc4c(c2)OCCO4)C(=O)NC3)n1 [Compound 56, 6-(2,3-dihydrobenzo[b][1,4]dioxin-6-yl)-5-((1-methyl-1H-pyrazol-3-yl)methoxy)isoindolin-1-one] the IC50 was 2930 nM and 7540 nM.
Cn1ccc(COc2cc3c(cc2-c2ccc(OC(F)F)cc2F)C(=O)NC3)n1 [Compound 42, 6-(4-(difluoromethoxy)-2-fluorophenyl)-5-((1-methyl-1H-pyrazol-3-yl)methoxy)isoindolin-1-one] gave an IC50 of 393 nM.
O=C1NCc2cc(Oc3ccncc3)c(-c3ccc(F)cc3F)cc21 [Compound 32, 6-(2,4-difluorophenyl)-5-(pyridin-4-yloxy)isoindolin-1-one] was tested, and the IC50 was 151 nM.
